The nature of assay [1]: Antihypertensive evaluation (AHP3). It is filed as in vivo. Particulars: AHP3 antihypertensive assay; Table 2; read-out: ED40 (Dose causing a 40 nm drop in blood pressure). From the text:
*Dose causing a […] drop in blood pressure, mg/kg.

The target in another assay is T1, A1 adenosine receptor (Rattus norvegicus, UniProt P25099).
T1 construct: from tissue
T1 sequence (P25099 1-326): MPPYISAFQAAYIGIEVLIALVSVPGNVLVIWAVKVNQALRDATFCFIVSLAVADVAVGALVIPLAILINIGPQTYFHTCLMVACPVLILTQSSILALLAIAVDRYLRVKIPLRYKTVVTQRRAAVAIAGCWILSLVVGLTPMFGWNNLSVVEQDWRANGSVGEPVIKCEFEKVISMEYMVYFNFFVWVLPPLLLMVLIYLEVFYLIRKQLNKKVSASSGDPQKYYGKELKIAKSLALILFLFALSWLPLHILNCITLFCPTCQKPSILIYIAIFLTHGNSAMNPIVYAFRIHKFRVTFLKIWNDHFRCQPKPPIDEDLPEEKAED
Briefly: adenosine A1 receptor binding affinity. Particulars: Table 1, n = 2 (mixture, VII'), n = 1 (VII"), read-out: A1 IC50 ± SE.

In patent US4837207A, “Diastereoisomers of n^6 -endo-bicyclo[2.2.1]heptyladenosine as antihypertensives with selective action” (priority 1987, dated 1989) one finds ED (40 mm drop in blood pressure) and IC50 data, which are given here for three compounds.

Broadly, the IC50 is the concentration that gives 50% inhibition. With `OC[C@H]1O[C@@H](n2cnc3c(NC4CC5CCC4C5)ncnc32)[C@H](O)[C@@H]1O` (mixture of isomers) [Diastereomeric mixture, N^6-endo-bicyclo[2.2.1]heptyl adenosine], the ED (40 mm drop in blood pressure) in assay [1] is 0.6 mg/kg. Further, the IC50 at A1 adenosine receptor turned out to be 0.738 ± 0.088 nM.
For `OC[C@H]1O[C@@H](n2cnc3c(N[C@@H]4C[C@@H]5CC[C@H]4C5)ncnc32)[C@H](O)[C@@H]1O` [Example 2 (VII"), (1S-endo)-N-Bicyclo[2.2.1]hept-2-yl adenosine], the ED (40 mm drop in blood pressure) in assay [1] is 0.7 mg/kg. Also, at A1 adenosine receptor, the IC50 came out at 2.63 nM.
Regarding `OC[C@H]1O[C@@H](n2cnc3c(N[C@H]4C[C@H]5CC[C@@H]4C5)ncnc32)[C@H](O)[C@@H]1O` [Example 1 (VII'), (1R-endo)-N-Bicyclo[2.2.1]hept-2-yl adenosine], the ED (40 mm drop in blood pressure) in assay [1] was determined as 0.16 mg/kg.
